We go through 13 molecules from patent publication US20070135497A1, “Biphenyl derivative or its salt, and pesticide containing it as an active ingredient” (ISHIHARA SANGYO KAISHA LTD., priority 2003, published 2007).

For `CNC(=O)c1cccc(-c2c(C)cc(Cl)cc2C)c1` [Compound No. 1-23, N-methyl-3-(4′-chloro-2′,6′-dimethylphenyl)benzamide], the melting point (in general, the temperature of the solid-liquid transition) is 137.1 °C.

Take `CNC(=O)c1cccc(-c2c(Cl)cccc2Cl)c1` [1-30, N-methyl-3-(2′,6′-dichlorophenyl)benzamide]: the melting point turned out to be 174.8 °C.

As to `CNC(=O)c1cc(-c2c(C)cc(C)cc2C)ccc1Cl` [Compound No. 2-12, N-methyl-6-chloro-3-(2′,4′,6′-trimethylphenyl)benzamide], the melting point was 130 °C.

In turn, `CNC(=O)c1cccc(-c2c(Cl)ccc(Cl)c2Cl)c1` [1-72, N-methyl-3-(2′,3′,6′-trichlorophenyl)benzamide] had a melting point of 135.3 °C.

In turn, `CNC(=O)c1cc(-c2c(Cl)cccc2Cl)ccc1F` [2-22, N-methyl-3-(2′,6′-dichlorophenyl)-6-fluorobenzamide] registered a melting point of 142.5 °C.

`CNC(=O)c1cccc(-c2c(C)cc(OC)cc2C)c1` [1-65, N-methyl-3-(2′,6′-dimethyl-4′-methoxyphenyl)benzamide] came in with a melting point of 139.6 °C.

Molecule `CNC(=O)c1cccc(-c2c(Cl)ccc(Br)c2Cl)c1` [1-82, N-methyl-3-(2′,6′-dichloro-3′-bromophenyl)benzamide] registered a melting point of 158 °C.

The molecule `CNC(=O)c1cccc(-c2c(Cl)ccc(N)c2Cl)c1` [1-108, N-methyl-3-(2′,6′-dichloro-3′-aminophenyl)benzamide] had a melting point of 64.1 °C.

Turning to `Cc1cc(Oc2ccc(C(F)(F)F)cn2)cc(C)c1-c1cccc(N)c1` [Compound No. 1-57, 4-(3′-aminophenyl)3,5-dimethylphenyl 5-trifluoromethyl-2-pyridyl ether], the melting point came to 200.3 °C.

In the case of `CNC(=O)c1cccc(-c2c(Cl)ccc(C(F)(F)F)c2Cl)c1` [1-120, N-methyl-3-(2′,6′-dichloro-3′-trifluoromethylphenyl)benzamide], the melting point is 126.1 °C.

`CNC(=O)c1cccc(-c2c(C)cc(C)cc2C)c1` [1-22, N-methyl-3-(2′,4′,6′-trimethylphenyl)benzamide] came in with a melting point of 142.9 °C.

For the molecule `CCNC(=O)c1cccc(-c2c(Cl)ccc(C(F)(F)F)c2Cl)c1` [1-127, N-ethyl-3-(2′,6′-dichloro-3′-trifluoromethylphenyl)benzamide], the melting point is 137 °C.

`Nc1cccc(-c2c(Cl)cccc2Cl)c1` [1-268, 3-(2′,6′-dichlorophenyl)aniline] showed a melting point of 102 °C.
